How the values were obtained:
SW620 xenografts = test: Cleaved caspase-3 immunohistochemistry, SW620 xenografts; assay type: in vivo, athymic nude mice; conditions: after imaging Day 5
Procedure: Dual xenograft-bearing mice were sequentially injected with 1×10^7 SW620 and 5×10^6 DLD-1 human CRC cells subcutaneously onto the left or right hind limbs (respectively) of 5- to 6-week old female, athymic nude mice (Harlan Sprague-Dawley). Palpable tumors were observed 2-3 weeks following inoculation. Animals bearing SW620 and DLD-1 xenograft tumors were treated with vehicle or AZD-1152 (25 mg/kg, DMSO) via intraperitoneal injection once daily for five days, analogous to previous work. In vivo PET imaging studies were performed on Day 5, approximately 4-6 h after treatment. Tumor tissues were harvested immediately following conclusion of imaging, fixed for 24 h in 5% buffered formalin, and blocked in paraffin. Immunohistochemistry for cleaved caspase-3 (Cell Signaling, #9664) was carried out as previously described. Tissues were stained using standard H&E methods and reviewed by an expert gastrointestinal pathologist (M. Kay Washington). […] Semi-quantitative IHC analysis was performed using the image processing software ImageJ and is further described below. For semi-quantitative analysis of cleaved caspase-3 IHC, the public domain image processing software ImageJ was used to selectively measure the area of positive staining of each cohort through manual threshold manipulation of hue, pixel saturation, and brightness. […]

caspase-3 = molecular target: T1, caspase-3 (Homo sapiens, UniProt P42574); test: Enzyme selectivity assay, caspase-3; assay type: biochemical; conditions: fluorescence assay kit, 0.0003-10 μM
T1 construct: purchased BPS Bioscience
T1 sequence (P42574 29-175 limits assumed): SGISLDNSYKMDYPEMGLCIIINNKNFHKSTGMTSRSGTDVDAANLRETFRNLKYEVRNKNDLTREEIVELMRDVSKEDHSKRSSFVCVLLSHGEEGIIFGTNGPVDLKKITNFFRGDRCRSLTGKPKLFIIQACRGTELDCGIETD
T1 sequence (P42574 176-277 limits assumed): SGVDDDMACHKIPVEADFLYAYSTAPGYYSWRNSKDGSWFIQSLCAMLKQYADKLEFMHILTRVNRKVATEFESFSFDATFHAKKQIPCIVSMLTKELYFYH
Procedure: (§1) Relative enzyme inhibition of [^19F]FB-VAD-FMK was evaluated against caspase-3/6/7/8 using homogeneous caspase fluorescence assay kits (BPS Bioscience) and compared to parent peptide. Caspase inhibitor dissolved in caspase assay buffer and 1% DMSO (0.0003-10 μM) was combined with the caspase assay substrate and enzyme at room temperature for 30 min in accordance with the manufacturer's instructions. Fluorescence intensity was measured at an excitation of 360 nm and an emission of 460 nm using an Infinite M1000 microplate reader (Tecan).

caspase-7 = molecular target: T2, caspase-7 (Homo sapiens, UniProt P55210); test: Enzyme selectivity assay, caspase-7; assay type: biochemical; conditions: fluorescence assay kit, 0.0003-10 μM
T2 construct: purchased BPS Bioscience
T2 sequence (P55210 24-198 limits assumed): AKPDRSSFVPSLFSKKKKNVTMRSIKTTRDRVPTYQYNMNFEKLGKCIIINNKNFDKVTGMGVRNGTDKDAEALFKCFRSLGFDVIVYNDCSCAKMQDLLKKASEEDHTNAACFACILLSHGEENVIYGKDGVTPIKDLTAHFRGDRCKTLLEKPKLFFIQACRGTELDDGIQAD
T2 sequence (P55210 207-303 limits assumed): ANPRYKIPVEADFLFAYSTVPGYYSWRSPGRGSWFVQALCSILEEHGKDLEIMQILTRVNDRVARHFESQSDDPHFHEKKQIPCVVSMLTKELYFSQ
Procedure: as §1

caspase-8 = molecular target: T3, caspase-8 (Homo sapiens, UniProt Q14790); test: Enzyme selectivity assay, caspase-8; assay type: biochemical; conditions: fluorescence assay kit, 0.0003-10 μM; compared with caspases-3/6/7
T3 construct: purchased BPS Bioscience
T3 sequence (Q14790 217-374 limits assumed): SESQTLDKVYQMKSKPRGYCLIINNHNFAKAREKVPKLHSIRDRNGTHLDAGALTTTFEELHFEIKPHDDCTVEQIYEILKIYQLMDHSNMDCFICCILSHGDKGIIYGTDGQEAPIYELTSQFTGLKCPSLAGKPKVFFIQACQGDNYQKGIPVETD
T3 sequence (Q14790 385-479 limits assumed): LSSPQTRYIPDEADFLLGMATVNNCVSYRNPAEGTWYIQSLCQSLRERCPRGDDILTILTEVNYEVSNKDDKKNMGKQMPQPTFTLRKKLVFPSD
Procedure: as §1

caspase-6 = molecular target: T4, caspase-6 (Homo sapiens, UniProt P55212); test: Enzyme selectivity assay, caspase-6; assay type: biochemical; conditions: fluorescence assay kit, 0.0003-10 μM
T4 construct: purchased BPS Bioscience
T4 sequence (P55212 24-179 limits assumed): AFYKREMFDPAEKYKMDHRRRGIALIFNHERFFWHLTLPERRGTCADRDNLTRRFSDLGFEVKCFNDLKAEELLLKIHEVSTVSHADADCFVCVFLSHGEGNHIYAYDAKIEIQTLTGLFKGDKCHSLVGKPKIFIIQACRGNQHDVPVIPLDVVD
T4 sequence (P55212 194-293 limits assumed): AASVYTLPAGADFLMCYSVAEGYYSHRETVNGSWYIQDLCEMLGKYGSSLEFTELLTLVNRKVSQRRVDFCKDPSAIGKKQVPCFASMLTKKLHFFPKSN
Procedure: as §1

[1] = in vivo
[2] = design: species or system male C57BL/6 mice; conditions: mouse, in vivo, iv
Procedure: Studies involving animals were conducted in accordance with federal and institutional guidelines. Biodistribution studies were performed using male C57BL/6 mice. A detailed description of in vitro drug response studies that support the subsequently described animal models and drug therapies is provided below. For all imaging studies, mice were maintained under 2% isofluorane anesthesia in 100% oxygen at 2 L/min and kept warm via a circulating water heating pad for the duration of the PET scan. Small-animal PET imaging was performed using a dedicated Concorde Microsystems Focus 220 microPET scanner (Siemens Preclinical Solutions). Animals were administered 7.4-9.3 MBq of [^18F]FB-VAD-FMK via intravenous injection. Both static and dynamic data sets were acquired. For static scans, animals were allowed free access to food and water during a 20-40 minute uptake period, followed by anesthetization and a 20-minute image acquisition. Analogously, sixty minute dynamic acquisitions for all xenografts were initiated at the time of [^18F]FB-VAD-FMK injection. Radiochemical preparation of [^18F]FB-VAD-FMK (Fig. S3) was performed as described above. The in vivo biodistribution of [^18F]FB-VAD-FMK was evaluated by ex vivo tissue counting at 60 min post-administration and correlative PET imaging up to 75 min post-administration.

[3] = Lipophilicity (log P7.5) by reversed phase HPLC; assay type: physicochemical; conditions: for log P7.5: reversed phase HPLC, phosphate buffer pH 7.5, standard curve
Procedure: [^19F]FB-VAD-FMK and [^127I]IZ-VAD-FMK were synthesized as described below. VAD-FMK (American Peptide) and Z-VAD-FMK (TOCRIS Bioscience, #2163) were obtained commercially and used without further purification. Relative enzyme selectivity of [^19F]FB-VAD-FMK compared to parent peptide was evaluated as described below. Lipophilicity measurements (Log P7.5) of peptide derivatives were determined analogously to reported methods and described below.
Lipophilicity characterization of compounds (3) and (5), as well as Z-VAD-FMK, was performed through log P7.5 quantification using methodology analogous to those previously reported (1). Using reversed phase HPLC (Phenomenex Luna C18, 5 μm, 100 Å, 4.6×250 mm) and a (85:15) phosphate buffer (2 mM, pH 7.5) isocratic system (1 mL/min), log P7.5 values were calculated using an average of compound retention times from three individual runs and standard curve derived linear regression. The following standards with known log P values were used for curve development: catechol, aniline, benzene, bromobenze, toluene, ethylbenzene, 2-chlorobiphenyl, biphenyl, 1-chloronaphthalene, 1,2,3-trimethylbenzene, 1,2,3,4-tetrachlorobenzene, 1,2,4,5-tetrabromobenzene, and pentachlorobenzene.

[4] = test system: caspase-3/7 activity in DiFi cells; test: Cellular caspase inhibition assay (Caspase-Glo 3/7); assay type: cell-based
Procedure: DiFi cells were propagated in Dulbecco's Modified Eagle's Medium (DMEM, Mediatech) and supplemented with 10% fetal bovine serum (Atlanta Biologicals) and 1 mg/mL gentamycin sulfate (Gibco) in a 95% humidity, 5% CO2, 37° C. atmosphere. Cells were seeded as sub-confluent monolayer cultures at a density of 1×10^4 per well into 96-well, black wall/bottom plates (BD Biosciences) and allowed to adhere for 24 h at 37° C. […] Cell media was then replaced with 1×PBS containing inhibitor (0, 10, 100, 1000, 10000 nM) and incubated at 37° C. for 30 min Inhibition was assessed using Caspase-Glo 3/7 reagent in accordance with the manufacturer's instructions. Luminescence was quantified using a Synergy 4 plate reader.

SW620 cells = test: In vitro drug exposure, immunoblot of cleaved PARP and cleaved caspase-3, SW620 cells; assay type: cell-based, human; conditions: 24 h, 0-5000 nM
Procedure: (§2) For cell cycle analysis, SW620 and DLD-1 cells were propagated to 50% confluency in 6 cm plates and treated with AZD-1152-hydroxyquinazoline pyrazol anilide (HQPA) (Selleckchem), 0, 10, 100, 1000, or 5000 nM, for 24 or 48 hrs and prepared for flow cytometry as described (2). Propidium iodide (PI)-stained cells were analyzed by flow cytometry (FACStar PLUS, Becton-Dickinson). Data analysis was performed using CellQuest software (Becton-Dickinson) by manually gating to define and quantify sub-G0, G1, S, G2/M, and polyploidy populations. For assay of apoptosis following in vitro AZD-1152-HQPA exposure, SW620 and DLD-1 cells were seeded as sub-confluent monolayer cultures at a density of 1×10^4 per well into 96-well, black wall/bottom plates (BD Biosciences), allowed to adhere for 24 h, and treated with AZD-1152-HQPA, 0, 10, 50, 75, 100, or 1,000 nM, for 24 hrs. Apoptosis was assessed using the Caspase-Glo 3/7 reagent, in accordance with manufacturer's instructions, and analyzed using a Synergy 4 plate reader.
(§3) After 24 h of drug exposure, in vitro cell samples were collected from 10-cm plates. Medium was removed and cell monolayers washed with 1× phosphate buffered saline (PBS) followed by addition of […] of lysis buffer containing: 7 mL of CelLytic M lysis buffer (Sigma), mini protease inhibitor cocktail (Roche), and […] of phosphatase inhibitor cocktail 1 and 2 (Sigma). […]

DLD-1 cells = test: In vitro drug exposure, immunoblot of cleaved PARP and cleaved caspase-3, DLD-1 cells; assay type: cell-based, human; conditions: 24 h, 0-5000 nM
Procedure: as §2, §3

In the case of `CCN(CCCOc1ccc2c(Nc3cc(CC(=O)Nc4cccc(F)c4)n[nH]3)ncnc2c1)CCOP(=O)(O)O` [AZD-1152], the “caspase-3 immunoreactivity compared to vehicle” value (SW620 xenografts) is reported as “elevated caspase-3 immunoreactivity”.
In the case of “Val-Ala-Asp(OMe)-fluoromethylketone [VAD-FMK, American Peptide, reference compound]”, the “inhibition potency, caspase-3” value (caspase-3) is reported as “single micro molar potency”, the “inhibition potency, caspase-7” value (caspase-7) is reported as “single micro molar potency” and the “inhibition potency, caspase-8” value (caspase-8) is reported as “slightly greater potency”. The “inhibition potency, caspase-6” value (caspase-6) was “single micro molar potency”.
For “[^18F]4-fluorobenzylcarbonyl-Val-Ala-Asp(OMe)-fluoromethylketone [[^18F]FB-VAD-FMK]”, the “parent compound in bile and urine samples” value [1] was no less than 50%, the “radioactivity in brain, lung, or bone” value [2] was “Very little radioactivity” and the “tissue activity in kidneys and liver” value [2] was “greatest activity”.
For “[^127I]4-iodobenzyloxycarbonyl-Val-Ala-Asp(OMe)-fluoromethylketone [[^127I]IZ-VAD-FMK]”, the “log P7.5” value [3] was 2.38.
With `COC(=O)C[C@H](NC(=O)[C@H](C)NC(=O)[C@@H](NC(=O)c1ccc(F)cc1)C(C)C)C(=O)CF` [[^19F]FB-VAD-FMK] the “inhibition of caspase-3/7 activity” value ([4]; DiFi cells in log-phase growth (untreated)) was “nanomolar concentrations”, the “inhibition of caspase-3/7 activity” value ([4]; DiFi cells, apoptosis induced by cetuximab 0.5 μg/mL 24 h) was “comparable efficacy to the parent peptide” and the “inhibition potency, caspase-3” value (caspase-3) was “single micro molar potency”. The “times less lipophilic than Z-VAD-FMK and [^127I]IZ-VAD-FMK” value ([3]; from log P7.5 values) was 50-100 times, the “log P7.5” value [3] was 1.41 and the “inhibition potency, caspase-7” value (caspase-7) was “single micro molar potency”. The “inhibition potency, caspase-8” value (caspase-8) was “slightly greater potency” and the “inhibition potency, caspase-6” value (caspase-6) was “single micro molar potency”.
In the case of “benzyloxycarbonyl-Val-Ala-Asp(OMe)-fluoromethylketone [Z-VAD-FMK, obtained commercially (TOCRIS Bioscience, #2163), reference compound]”, the “log P7.5” value [3] is reported as 2.20.
In the case of `CCN(CCO)CCCOc1ccc2c(Nc3cc(CC(=O)Nc4cccc(F)c4)[nH]n3)ncnc2c1` [AZD-1152-HQPA, AZD-1152-hydroxyquinazoline pyrazol anilide], the “cleaved PARP and cleaved caspase-3 levels” value (SW620 cells) is reported as “concentration-dependent increases” and the “cleaved PARP and cleaved caspase-3 levels” value (DLD-1 cells) is reported as “concentration-dependent increases”.

— US10294271B1, “Compound, composition, and method for detecting caspase activity and/or apoptosis” (Vanderbilt University, priority 2013, dated 2019)
